Values joined by “and” are separate entries in the source; they are usually repeats but may differ in a detail not shown here. Equal entries are not always repeated. Square brackets hold non-standard residues; d marks the D form. Peptide text beside a SMILES is read from it. d(hArg(Et2)) = CCN=C(NCC)NCCCC[C@@H](N)C(=O)O; hArg(Et2) = CCN=C(NCC)NCCCC[C@H](N)C(=O)O; dPhe(4-Cl) = N[C@H](Cc1ccc(Cl)cc1)C(=O)O; d2Nal = N[C@H](Cc1ccc2ccccc2c1)C(=O)O; d3Pal = N[C@H](Cc1cccnc1)C(=O)O
Key:
[1] = tested on: Luteinizing hormone (LH) blood level; test: GnRH antagonist protocol with ganirelix acetate injections (Example 1): LH blood level before and after medication; assay type: in vivo, female patients
Procedure: Five female patients were treated with a GnRH antagonist protocol requiring injections of medications. […]
Three patients, numbered 3 to 5, were injected with 75, 150 and 225 Units of FSH, respectively, on days 4 to 12 and one third a syringe of 150 mcg/0.5 mL of ganirelix acetate on days 11 to 13. Patient no. 3 received 50 mg of clomiphene citrate on days 4 to 12, and 2.5 mg of letrozole on days 4 to 8. Patient no. 4 received 100 mg of clomiphene citrate and 2.5 mg of letrozole on days 4 to 8, and 50 mg of clomiphene citrate on days 9 to 11. Patient no. 5 received no clomiphene citrate or letrozole. Luteinizing hormone (LH) blood level was 12.0, 18.0 and 14.6 mIU/mL, respectively, on day 10 and dropped to 4.9, 16.0 and 14.1 mIU/mL, respectively, on day 12. […]

[2] = tested on: Luteinizing hormone (LH) blood level; test: Home controlled ovarian hyperstimulation method with vaginal elagolix (Example 2): LH blood level before and after medication; assay type: in vivo, female patients; settings: 50 mg elagolix tablet as vaginal suppository on days 9 and 11
Procedure: On day 9 of the menstrual cycle, the patient is directed to orally take 50 to 150 mg, preferably 100 mg, (one, two, or three 50 mg oral tablets) of clomiphene citrate and to either insert vaginally or take orally, depending on the patient's preference, a gonadotropin-releasing hormone (GnRH) antagonist such as elagolix (marketed as ORILISSA®), instead of the expensive injections of ganirelix acetate (GANIRELEX®) or cetrorelix acetate (marketed as CETROTIDE®) used routinely in conventional practices. A dose of 25 mg (⅛^th of a pill) up to 200 mg of elagolix (1 full pill), preferably 25 mg, will be used, with the dose being the same whether inserted vaginally or taken orally. Elagolix is a GnRH antagonist that is conventionally used in the treatment of pain associated with endometriosis in women, not for the treatment of infertility. By blocking the GnRH receptor, elagolix suppresses LH release by the pituitary gland and thus prevents LH surge. Ultimately, elagolix suppresses gonadal steroid production, thereby reducing circulating levels of sex hormones such as progesterone, estradiol, and testosterone. Elagolix is generally an oral medication (oral tablet), however in the present method, elagolix is a tablet taken mainly as a vaginal suppository, but may be taken orally based on the patient's preference. […]

SMILES | LH blood hormone level (mIU/mL) AFTER medication intake ([1]; Example 1, one line per patient (patients 1-5), after ganirelix injections, listed as Conventional Ganielex/Cetrotide Injectables) | LH blood hormone level (mIU/mL) BEFORE medication intake ([1]; Example 1, one line per patient (patients 1-5), baseline before ganirelix injections, with FSH and, except patient 5, clomiphene citrate/letrozole, listed as Conventional Ganielex/Cetrotide Injectables) | % Drop in blood LH hormone level ([1]; Example 1, one line per patient (patients 1-5), before vs after medication intake, listed as Conventional Ganielex/Cetrotide Injectables) [%] | Luteinizing hormone (LH) blood level on day 12 ([1]; patient no. 1, half a syringe of 150 mcg/0.5 mL ganirelix acetate on days 11 and 12) [mIU/mL] | Luteinizing hormone (LH) blood level on day 10 ([1]; patient no. 1, half a syringe of 150 mcg/0.5 mL ganirelix acetate on days 11 and 12, FSH 150 Units, clomiphene citrate 50 mg, letrozole 2.5 mg) [mIU/mL] | Luteinizing hormone (LH) blood level on day 13 ([1]; patient no. 2, half a syringe of 150 mcg/0.5 mL ganirelix acetate on days 11 to 13) [mIU/mL] | Luteinizing hormone (LH) blood level on day 11 ([1]; patient no. 2, half a syringe of 150 mcg/0.5 mL ganirelix acetate on days 11 to 13, FSH 75/150 Units, clomiphene citrate 50 mg, letrozole 2.5 mg) [mIU/mL] | Luteinizing hormone (LH) blood level on day 10 ([1]; patients no. 3, 4, 5 respectively, one third a syringe of 150 mcg/0.5 mL ganirelix acetate on days 11 to 13, FSH 75, 150, 225 Units) | Luteinizing hormone (LH) blood level on day 13 [2] [mIU/mL] | Luteinizing hormone (LH) blood level on day 11 ([2]; clomiphene citrate 100 mg, letrozole 5 mg) [mIU/mL]
CCN=C(NCC)NCCCC[C@H](NC(=O)[C@H](CC(C)C)NC(=O)[C@@H](CCCCNC(=NCC)NCC)NC(=O)[C@H](Cc1ccc(O)cc1)NC(=O)[C@H](CO)NC(=O)[C@@H](Cc1cccnc1)NC(=O)[C@@H](Cc1ccc(Cl)cc1)NC(=O)[C@@H](Cc1ccc2ccccc2c1)NC(C)=O)C(=O)N1CCC[C@H]1C(=O)N[C@H](C)C(N)=O [Ganirelex, ganirelix acetate] (Ac-[d2Nal][dPhe(4-Cl)][d3Pal]SY[d(hArg(Et2))]L[hArg(Et2)]P[dA]-NH2) | 2.0 mIU/mL and 6.3 mIU/mL and 4.9 mIU/mL and 16.0 mIU/mL and 14.1 mIU/mL | 4.3 mIU/mL and 12.0 mIU/mL (2×) and 18.0 mIU/mL and 14.6 mIU/mL | 3.4 | 2 | 4.3 | 6.3 | 12.0 | 12.0 mIU/mL and 18.0 mIU/mL and 14.6 mIU/mL | – | –
COc1cccc(-c2c(C)n(Cc3c(F)cccc3C(F)(F)F)c(=O)n(C[C@H](NCCCC(=O)O)c3ccccc3)c2=O)c1F [Vaginal elagolix suppository, elagolix] | – | – | – | – | – | – | – | – | 1.0 | 7.0
